Experimental data from patent US3987198A, “Method for lowering the free fatty acid content in sebum using certain fatty acid amides” (Syntex (U.S.A.) Inc., priority 1975, dated 1976).
Converted amounts (≈) assume the structure as drawn. Read-outs that look alike come from different tables or passages of the source.

Key:
[1] = tested on: C. acnes (ATCC No. 6919); test: Growth inhibition of C. acnes in Fluid Thioglycollate culture tubes; format: cell-based, Corynebacterium acnes; conditions: for MIC: Cutibacterium acnes, read-out: Inhibitory Concentration at 72 Hours; for Effect on growth of C. acnes: at 200 μg/ml.
Protocol: Culture tubes are prepared containing 10 ml. of freshly prepared Difco Fluid Thioglycollate medium with agar and indicator. […] Each tube is inoculated with 0.2 ml. of a 48 hour culture of C. acnes (ATCC No. 6919), and the tubes are inspected at 24 hour intervals. Incubation at 37° C.

[2] = Double-blind crossover study of 5% oleic acid diethanolamide gel on the face, forehead surface lipids; format: in vivo, human subjects
Excerpt: The subjects were selected on the basis of having a higher than 20 % free fatty acid content in their individual total sebum. None were on systemic antibiotic therapy during the course of this study.
The subjects were instructed to wash three times daily with Ivory soap, immediately after rinsing and drying the face to apply sufficient medication (active agent or placebo) to cover the entire face with the exception of the eye and cheekbone areas, and to gently massage the medication into the skin. Each treatment was continued for the last 6 weeks of the study, no medication being used, however, during the two-week no-treatment period. No other therapy was permitted on the face during the course of the study. No medicated soaps or shampoos, oily hair dressings or any hair sprays were permitted. Cosmetics other than lipstick and eyeshadow were not to be applied on the days of sebum collection. On days of sebum collection, the forehead was not to be washed, wiped, or touched in the 6 hours between the time of cleansing and the time of sebum collection.
Twice a week during the first two weeks of the study, a forehead sample of surface lipids were obtained from each subject and measured for total weight and free fatty acids. No medication or placebo therapy was employed during this two-week period. These samples from each subject constitute the baseline data for this study. Twice a week for the next 6 weeks, further surface lipid samples were taken from each subject and analyzed. In all cases, the surface lipid samples were collected by drawing sebum from both the left and right sides of the subject's forehead.

[3] = target: T1, crude enzyme from cultures of Corynebacterium acnes (ATCC No. 6919) (lipolytic enzymes) (Cutibacterium acnes, UniProt Q59644); test: Inhibition of triolein hydrolysis by Corynebacterium acnes lipolytic enzyme (radiolabelled triolein, TLC of free oleic acid); format: biochemical; conditions: 60 minutes at room temperature, pH 7.1 phosphate buffer, triolein 2mM; read-out: Concentration Causing 50% Inhibition of Triolein (2mM) Hydrolysis
T1 construct: crude ethanol-acetic acid precipitate of three-day cultures, Sephadex G-25 and G-100 fractions
T1 sequence (Q59644 entry or part of it): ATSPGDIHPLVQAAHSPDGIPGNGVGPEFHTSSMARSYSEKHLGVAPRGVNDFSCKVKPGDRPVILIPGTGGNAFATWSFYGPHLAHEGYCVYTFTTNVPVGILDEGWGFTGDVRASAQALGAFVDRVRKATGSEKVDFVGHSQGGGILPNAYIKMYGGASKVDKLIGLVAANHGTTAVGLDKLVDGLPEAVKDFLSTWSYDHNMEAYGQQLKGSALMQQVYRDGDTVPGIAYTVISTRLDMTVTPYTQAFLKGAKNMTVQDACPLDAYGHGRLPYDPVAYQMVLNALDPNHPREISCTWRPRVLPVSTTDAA
Protocol: A 1 ml. aliquot of glyceryl trioleate-(9,10)T is separated on TLC (silica gel) in hexane-ether-acetic acid (70:30:1) and the area corresponding to pure triolein is eluted. The radioactive material is diluted with cold, previously purified triolein (8.8639 g.) in 500 ml. of benzene. The resulting solution is 20mM in triolein.
The crude enzyme prepared by ethanol-acetic acid precipitation from three day cultures of Corynebacterium acnes (ATCC No. 6919) is passed successively through Sephadex G-25 and G-100 columns, and the concentrate is diluted to 250 ml. for use in the assay described below.
An emulsion is prepared by evaporating 5.70 ml. of the benzene solution, prepared in Example 1 above; 6 ml. of 10% gum arabic in water and 3.4 ml. of 0.05M phosphate buffer (pH 7.1) are added, and the mixture is sonicated for three 20 second intervals. Aliquots (0.7 ml.) containing […] emulsified triolein are added to each of 10 1/6 dram vials for each compound to be assayed.
Vial No. 1 receives an additional 0.3 ml. buffer at time 0, and acts as 0 control. […]
The hydrolysis is allowed to proceed for 60 minutes at room temperature, after which time, the vials are transferred to a silicone oil bath and maintained at 95° C. […] The areas corresponding to free oleic acid (after visualization with iodine vapor) are scraped directly into scintillation vials and counted. […]

[4] = ATCC6919, 72 hours, 37° C., Difco Fluid Thioglycollate medium
[5] = 5% gel of Example 8, topical three times daily, two-week treatment, 21 subjects

CC(C)CCCCCCCCCCCCCCC(=O)N(CCO)CCO [Isostearic acid diethanolamide]
MIC [1, 4]: ~12.5 µg/mL (≈ 33.6 µM)

CCCCCCCCCCCC(=O)N(CCO)CCO [Lauric acid diethanolamide]
MIC ([1]; ATCC6919, 72 h): ~12.5 µg/mL (≈ 43.5 µM)

CCCCCCCCCCCCCC(=O)N(CCO)CCO [Myristic acid diethanolamide]
MIC [1, 4]: ~6.25 µg/mL (≈ 19.8 µM)

CCCCCCCC/C=C\CCCCCCCC(=O)N(CCO)CCO [Oleic acid diethanolamide]
free fatty acid values, average lowering versus placebo [2, 5]: 11% | total sebum values, average lowering versus placebo [2, 5]: 8% | carryover effect upon total sebum level ([2]; 5% gel, crossover study): no indication of a carryover effect | overall reduction of average free fatty acid content, end of active treatment versus immediately prior to treatment ([2]; 5% gel, two-week treatment): approximately 20% | Maximum reduction in free fatty acid levels, subject two ([2]; 5% gel, two-week treatment, subject two): 78% | duration of carryover effect upon free fatty acid levels after termination of use ([2]; subjects given active agent before placebo): at least two weeks | MIC [1, 4]: ~12.5 µg/mL (≈ 33.8 µM)

CCCCCCCC/C=C\CCCCCCCC(=O)O [Oleic acid, reference compound]
Effect on growth of C. acnes ([1]; 72 hours): growth stimulatory

CCCCCCCCCCCCCCCC(=O)N(CCO)CCO [Palmitic acid diethanolamide]
MIC [1, 4]: ~6.25 µg/mL (≈ 18.2 µM)

CCCCCCCC/C=C\CCCCCCCC(=O)OCC(COC(=O)CCCCCCC/C=C\CCCCCCCC)OC(=O)CCCCCCC/C=C\CCCCCCCC [Triolein, reference compound]
Effect on growth of C. acnes ([1]; 72 hours): growth stimulatory

C=CCCCCCCCCC(=O)N(CCO)CCO [Undecylenic diethanolamide, reference compound]
MIC [1, 4]: > 300 µg/mL

N-morpholinooleamide
IC50 [3]: 700 µM
